Source: patent publication US8710198B2, “Caprazene as a novel compound and derivatives thereof, and caprazol as a novel compound and derivatives thereof” (Meiji Seika Pharma Co., Ltd., priority 2003, dated 2014)

Experiments:
Assay type in all cases: cell-based
[1] = tested on: Mycobacterium smegmatis ATCC607; assay: Minimum growth inhibitory concentration on agar culture medium with 1% glycerine by serial dilution method; conditions: agar culture medium with the addition of 1% glycerine
Method: (§1) Minimum growth inhibitory concentrations (mcg/ml) of caprazene-1′″-amide derivatives of the formula (II) against some of microorganisms were measured on an agar culture medium by a serial dilution method according to the standard method as provided by Japanese Society of Chemotherapy. For the cultivation of Mycobacterium smegmatis (one of […]), however, there was used an agar culture medium with the addition of 1% glycerine (the same applies to in the following tests).
(§2) Minimum growth inhibitory concentrations (mcg/ml) of some of the caprazene-1′″-ester derivative of the formula (III) against some of microorganisms were measured on an agar culture medium by a serial dilution method according to the standard method as provided by Japanese Society of Chemotherapy.
(§3) Minimum growth inhibitory concentrations (mcg/ml) of some of the caprazol-1′″-amide derivative of the formula (V) against a variety of microorganisms were measured on an agar medium by a serial dilution method according to the standard method as provided by Japanese Society of Chemotherapy.
as §3, with “caprazol-1′″-amide-3′″-ester” for “caprazol-1′″-amide”, “(VI)” for “(V)”
as §3, with “caprazol-3′″-ester derivative or caprazol-1′″-ester-3′″-ester” for “caprazol-1′″-amide”, “(VII)” for “(V)”

Micrococcus luteus FDA16 = assay: Minimum growth inhibitory concentration on agar culture medium by serial dilution method (Japanese Society of Chemotherapy)
Method: as §1, §2, §3
as §3, with “caprazol-1′″-amide-3′″-ester” for “caprazol-1′″-amide”, “(VI)” for “(V)”
as §3, with “caprazol-3′″-ester derivative or caprazol-1′″-ester-3′″-ester” for “caprazol-1′″-amide”, “(VII)” for “(V)”
(§4) Minimum growth inhibitory concentrations (mcg/ml) of some of the derivative of the formula (VIII) against a variety of microorganisms were measured on an agar medium by a serial dilution method according to the standard method as provided by Japanese Society of Chemotherapy.

[2] = tested on: Staphylococcus aureus FDA209P; assay: as above
Method: as §1, §2, §3
as §4, with “of the caprazol-1′″-amide-3′″-ester derivative of” for “of the derivative of”, “the formula (VI) against a” for “the formula (VIII) against a”
as §4, with “of the caprazol-3′″-ester derivative or caprazol-1′″-ester-3′″-ester derivative of” for “of the derivative of”, “the formula (VII) against a” for “the formula (VIII) against a”
as §4

Structure (SMILES) | Minimum growth inhibitory concentration (mcg/ml) against bacteria Mycobacterium smegmatis ATCC607 [1] [µg/mL] | Minimum growth inhibitory concentration (mcg/ml) against bacteria Micrococcus luteus FDA16 (Micrococcus luteus FDA16) [µg/mL] | Minimum growth inhibitory concentration (mcg/ml) against bacteria Staphylococcus aureus FDA209P [2] [µg/mL]
CCCc1ccc(NC(=O)C2=CCN(C)C(C(OC3OC(CN)C(O)C3O)C3OC(n4ccc(=O)[nH]c4=O)C(O)C3O)C(=O)N2C)cc1 (stereo not drawn) [Compound II-3] | 12.5 | 3.13 | 25
CCCCCc1ccc(NC(=O)C2=CCN(C)C(C(OC3OC(CN)C(O)C3O)C3OC(n4ccc(=O)[nH]c4=O)C(O)C3O)C(=O)N2C)cc1 (stereo not drawn) [Compound II-5] | 3.13 | 0.2 | 3.13
CCCCCCc1ccc(NC(=O)C2=CCN(C)C(C(OC3OC(CN)C(O)C3O)C3OC(n4ccc(=O)[nH]c4=O)C(O)C3O)C(=O)N2C)cc1 (stereo not drawn) [Compound II-6] | 0.78 | 0.39 | 1.56
CCCCCCCc1ccc(NC(=O)C2=CCN(C)C(C(OC3OC(CN)C(O)C3O)C3OC(n4ccc(=O)[nH]c4=O)C(O)C3O)C(=O)N2C)cc1 (stereo not drawn) [Compound II-7] | <0.20 | <0.20 | 1.56
CCCCCCCCCc1ccc(NC(=O)C2=CCN(C)C(C(OC3OC(CN)C(O)C3O)C3OC(n4ccc(=O)[nH]c4=O)C(O)C3O)C(=O)N2C)cc1 (stereo not drawn) [Compound II-9] | 1.56 | 0.39 | 3.13
CCCCCCCCCCc1ccc(NC(=O)C2=CCN(C)C(C(OC3OC(CN)C(O)C3O)C3OC(n4ccc(=O)[nH]c4=O)C(O)C3O)C(=O)N2C)cc1 (stereo not drawn) [Compound II-10] | 3.13 | <0.20 | 3.13
CCCCCCCCCCCc1ccc(NC(=O)C2=CCN(C)C(C(OC3OC(CN)C(O)C3O)C3OC(n4ccc(=O)[nH]c4=O)C(O)C3O)C(=O)N2C)cc1 (stereo not drawn) [Compound II-11] | 3.13 | 0.39 | 3.13
CCCCCCCCCCCCc1ccc(NC(=O)C2=CCN(C)C(C(OC3OC(CN)C(O)C3O)C3OC(n4ccc(=O)[nH]c4=O)C(O)C3O)C(=O)N2C)cc1 (stereo not drawn) [Compound II-12] | 6.25 | 0.78 | 3.13
CCCCCCCCCCCCCc1ccc(NC(=O)C2=CCN(C)C(C(OC3OC(CN)C(O)C3O)C3OC(n4ccc(=O)[nH]c4=O)C(O)C3O)C(=O)N2C)cc1 (stereo not drawn) [Compound II-13] | 12.5 | 1.56 | 3.13
CCCCCCCCCCCCCCc1ccc(NC(=O)C2=CCN(C)C(C(OC3OC(CN)C(O)C3O)C3OC(n4ccc(=O)[nH]c4=O)C(O)C3O)C(=O)N2C)cc1 (stereo not drawn) [Compound II-14] | 25 | 3.13 | 6.25
CCCCCCOc1ccc(NC(=O)C2=CCN(C)C(C(OC3OC(CN)C(O)C3O)C3OC(n4ccc(=O)[nH]c4=O)C(O)C3O)C(=O)N2C)cc1 (stereo not drawn) [Compound II-20] | 1.56 | 0.39 | 6.25
CCCCCCCCCOc1ccc(NC(=O)C2=CCN(C)C(C(OC3OC(CN)C(O)C3O)C3OC(n4ccc(=O)[nH]c4=O)C(O)C3O)C(=O)N2C)cc1 (stereo not drawn) [Compound II-23] | 0.78 | 0.39 | 1.56
CCCCCCNC(=O)C1=CCN(C)C(C(OC2OC(CN)C(O)C2O)C2OC(n3ccc(=O)[nH]c3=O)C(O)C2O)C(=O)N1C (stereo not drawn) [Compound II-A] | 100 | 3.13 | >100
CCCCCCCNC(=O)C1=CCN(C)C(C(OC2OC(CN)C(O)C2O)C2OC(n3ccc(=O)[nH]c3=O)C(O)C2O)C(=O)N1C (stereo not drawn) [Compound II-B] | 25 | 1.56 | 25
CCCCCCCCNC(=O)C1=CCN(C)C(C(OC2OC(CN)C(O)C2O)C2OC(n3ccc(=O)[nH]c3=O)C(O)C2O)C(=O)N1C (stereo not drawn) [Compound II-C] | 12.5 | 0.78 | 6.25
CCCCCCCCCNC(=O)C1=CCN(C)C(C(OC2OC(CN)C(O)C2O)C2OC(n3ccc(=O)[nH]c3=O)C(O)C2O)C(=O)N1C (stereo not drawn) [Compound II-D] | 3.13 | 0.39 | 6.25
CCCCCCCCCCNC(=O)C1=CCN(C)C(C(OC2OC(CN)C(O)C2O)C2OC(n3ccc(=O)[nH]c3=O)C(O)C2O)C(=O)N1C (stereo not drawn) [Compound II-E] | 0.78 | 0.39 | 25
CCCCCCCCCCCNC(=O)C1=CCN(C)C(C(OC2OC(CN)C(O)C2O)C2OC(n3ccc(=O)[nH]c3=O)C(O)C2O)C(=O)N1C (stereo not drawn) [Compound II-F] | 0.39 | 0.39 | 1.56
CCCCCCCCCCCCNC(=O)C1=CCN(C)C(C(OC2OC(CNC(=O)OC(C)(C)C)C(O)C2O)C2OC(n3ccc(=O)[nH]c3=O)C(O)C2O)C(=O)N1C (stereo not drawn) [Compound II-G-N-Boc] | 50 | 50 | 50
CCCCCCCCCCCCNC(=O)C1=CCN(C)C(C(OC2OC(CN)C(O)C2O)C2OC(n3ccc(=O)[nH]c3=O)C(O)C2O)C(=O)N1C (stereo not drawn) [Compound II-G] | 0.39 | 0.39 | 3.13
CCCCCCCCCCCCCNC(=O)C1=CCN(C)C(C(OC2OC(CNC(=O)OC(C)(C)C)C(O)C2O)C2OC(n3ccc(=O)[nH]c3=O)C(O)C2O)C(=O)N1C (stereo not drawn) [Compound II-H-N-Boc] | 25 | 12.5 | 25
CCCCCCCCCCCCCNC(=O)C1=CCN(C)C(C(OC2OC(CN)C(O)C2O)C2OC(n3ccc(=O)[nH]c3=O)C(O)C2O)C(=O)N1C (stereo not drawn) [Compound II-H] | <0.20 | 0.78 | 3.13
CCCCCCCCCCCCCCNC(=O)C1=CCN(C)C(C(OC2OC(CNC(=O)OC(C)(C)C)C(O)C2O)C2OC(n3ccc(=O)[nH]c3=O)C(O)C2O)C(=O)N1C (stereo not drawn) [Compound II-I-N-Boc] | 25 | 12.5 | 12.5
